How the values were obtained:
Human κ-Opioid (KOP) = target: T1, Human κ-Opioid (KOP) (Homo sapiens, UniProt P41145); assay: Radioligand binding, human κ-opioid (KOP) membranes, filtration, [3H]-Diprenorphine; details: compound at 10 μM; [3H]-Diprenorphine
T1 construct: purchased Perkin Elmer Biosignal
How it was run: (§1)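 Filtration binding on cloned human receptor membranes (1 Unit/well), [125I]-Substance P for NK1 and [3H]-Diprenorphine for KOP, 1 h at room temperature. Filters PEI-presoaked, washed with cold 50 mM Tris-HCl pH 7.4, counted by scintillation; percent inhibition calculated, reference ligand defining non-specific binding.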

Mouse urotensin (mUR2) = target: T2, Mouse urotensin (mUR2) (Mus musculus, UniProt Q8VIH9); assay: Radioligand binding, mouse urotensin mUR2 membranes, FlashPlate, [125I]-Urotensin II; details: compound at 10 μM; [125I]-Urotensin II
T2 construct: purchased Perkin Elmer Biosignal
T2 sequence (Q8VIH9 1-385): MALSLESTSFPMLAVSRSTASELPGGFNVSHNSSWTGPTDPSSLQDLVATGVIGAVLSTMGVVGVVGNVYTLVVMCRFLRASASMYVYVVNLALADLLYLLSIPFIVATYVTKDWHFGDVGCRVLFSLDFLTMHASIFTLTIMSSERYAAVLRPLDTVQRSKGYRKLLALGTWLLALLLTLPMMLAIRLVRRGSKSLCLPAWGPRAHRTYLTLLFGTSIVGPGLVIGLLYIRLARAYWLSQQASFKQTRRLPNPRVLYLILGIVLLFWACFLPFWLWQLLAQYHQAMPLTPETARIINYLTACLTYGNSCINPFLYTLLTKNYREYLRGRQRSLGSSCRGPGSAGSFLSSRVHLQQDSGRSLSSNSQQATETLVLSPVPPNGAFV
How it was run: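 Cloned mouse urotensin (mUR2) receptor membranes from Perkin Elmer Biosignal were immobilized in FlashPlate microplates using a proprietary coating. Each well got 19.5 μl buffer, then 0.5 μl of DMSO, reference ligand, or compound. Adding 5 μl of [125I]-Urotensin II, diluted to 5× final concentration in binding buffer, started binding. Plates were sealed with TopSeal-A and incubated 1 hour at room temperature in the dark. Wells were counted for 30 seconds each on a TopCount after a 60-second delay, and percentage inhibition was calculated.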

Human δ-opioid (DOP) = target: T3, Human δ-opioid (DOP) (Homo sapiens, UniProt P41143); assay: Radioligand binding, human δ-opioid (DOP) membranes, FlashPlate, [3H]-Bremazocine; details: compound at 10 μM; [3H]-Bremazocine
T3 construct: purchased Perkin Elmer Biosignal
How it was run: (§2)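 Cloned human receptor membranes were coated onto FlashPlate wells and incubated with radioligand and compound (added from a 0.5 mM DMSO daughter plate) for 1 hour at room temperature in the dark. Scintillation counting gave percent inhibition, with DMSO defining total and reference ligand defining non-specific binding.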

Human Melanocortin (MC4) = target: T4, Human Melanocortin (MC4) (Homo sapiens, UniProt P32245); assay: Radioligand binding, human melanocortin MC4 membranes, FlashPlate, [125I]-NDP-αMSH; details: compound at 10 μM; [125I]-NDP-αMSH
T4 construct: purchased Perkin Elmer Biosignal
How it was run: as §2

[1] = target: T5, Human neuropeptide Y (NPY-Y1) (Homo sapiens, UniProt P25929); assay: Radioligand binding, human neuropeptide Y NPY-Y1 membranes, FlashPlate, [125I]-PYY; details: compound at 10 μM; [125I]-PYY
T5 construct: purchased Perkin Elmer Biosignal
T5 sequence (P25929 1-384): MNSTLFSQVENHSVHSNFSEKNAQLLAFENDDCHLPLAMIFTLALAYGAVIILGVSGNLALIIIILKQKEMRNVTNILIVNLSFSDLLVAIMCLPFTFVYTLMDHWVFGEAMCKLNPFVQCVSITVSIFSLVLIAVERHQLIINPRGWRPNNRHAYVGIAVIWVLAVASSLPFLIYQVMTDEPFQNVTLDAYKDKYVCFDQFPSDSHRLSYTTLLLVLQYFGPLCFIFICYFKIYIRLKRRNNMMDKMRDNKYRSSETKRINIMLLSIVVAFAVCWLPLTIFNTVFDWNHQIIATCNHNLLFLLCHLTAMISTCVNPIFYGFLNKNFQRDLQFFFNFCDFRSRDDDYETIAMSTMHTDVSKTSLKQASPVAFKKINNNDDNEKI
How it was run: as §2

Human μ-opioid (MOP) = target: T6, Human μ-opioid (MOP) (Homo sapiens, UniProt P35372); assay: Radioligand binding, human μ-opioid (MOP) membranes, FlashPlate, [3H]-Naloxone; details: compound at 10 μM; [3H]-Naloxone
T6 construct: purchased Perkin Elmer Biosignal
How it was run: as §2

Human melanocortin (MC5) = target: T7, Human melanocortin (MC5) (Homo sapiens, UniProt P33032); assay: Radioligand binding, human melanocortin MC5 membranes, FlashPlate, [125I]-NDP-αMSH; details: compound at 10 μM; [125I]-NDP-αMSH
T7 construct: purchased Perkin Elmer Biosignal
How it was run: as §2

[2] = target: T8, Human melanin-concentrating hormone (MCH1) (Homo sapiens, UniProt Q99705); assay: Radioligand binding, human melanin-concentrating hormone MCH1 membranes, FlashPlate, [125I]-S36057; details: compound at 10 μM; [125I]-S36057
T8 construct: purchased Perkin Elmer Biosignal
How it was run: as §2

Human opioid (ORL1) = target: T9, Human opioid (ORL1) (Homo sapiens, UniProt P41146); assay: Radioligand binding, human opioid ORL1 membranes, FlashPlate, [125I]-Nociceptin; details: compound at 10 μM; [125I]-Nociceptin
T9 construct: purchased Perkin Elmer Biosignal
How it was run: as §2

Human Melanocortin (MC3) = target: T10, Human Melanocortin (MC3) (Homo sapiens, UniProt P41968); assay: Radioligand binding, human melanocortin MC3 membranes, FlashPlate, [125I]-NDP-αMSH; details: compound at 10 μM; [125I]-NDP-αMSH
T10 construct: purchased Perkin Elmer Biosignal
How it was run: as §2

Human neurokinin (NK1) = target: T11, Human neurokinin (NK1) (Homo sapiens, UniProt P25103); assay: Radioligand binding, human neurokinin NK1 membranes, filtration, [125I]-Substance P; details: compound at 10 μM; [125I]-Substance P
T11 construct: purchased Perkin Elmer Biosignal
How it was run: as §1

T6 sequence (P35372 whole entry): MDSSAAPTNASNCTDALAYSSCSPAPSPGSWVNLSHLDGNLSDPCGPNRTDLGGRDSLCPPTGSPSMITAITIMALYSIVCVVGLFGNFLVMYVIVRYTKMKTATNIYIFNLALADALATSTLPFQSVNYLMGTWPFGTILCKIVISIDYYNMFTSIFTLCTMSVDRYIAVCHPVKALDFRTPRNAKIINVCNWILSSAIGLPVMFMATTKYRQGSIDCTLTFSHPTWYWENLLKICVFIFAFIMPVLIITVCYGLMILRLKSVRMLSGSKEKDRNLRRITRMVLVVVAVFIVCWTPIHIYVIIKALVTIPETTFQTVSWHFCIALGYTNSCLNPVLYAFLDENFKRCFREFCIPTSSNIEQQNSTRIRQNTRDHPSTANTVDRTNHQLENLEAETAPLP
T3 sequence (P41143 whole entry): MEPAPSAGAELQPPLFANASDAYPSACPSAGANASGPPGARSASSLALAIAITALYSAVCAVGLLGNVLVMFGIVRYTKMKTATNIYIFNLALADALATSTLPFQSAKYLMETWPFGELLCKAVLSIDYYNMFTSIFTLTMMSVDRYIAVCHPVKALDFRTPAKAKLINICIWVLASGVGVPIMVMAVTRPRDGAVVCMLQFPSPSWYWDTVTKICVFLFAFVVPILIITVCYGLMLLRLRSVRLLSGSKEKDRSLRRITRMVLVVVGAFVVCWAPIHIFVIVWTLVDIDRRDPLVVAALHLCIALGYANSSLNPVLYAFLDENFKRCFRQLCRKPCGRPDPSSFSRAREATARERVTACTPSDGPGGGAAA
T9 sequence (P41146 whole entry): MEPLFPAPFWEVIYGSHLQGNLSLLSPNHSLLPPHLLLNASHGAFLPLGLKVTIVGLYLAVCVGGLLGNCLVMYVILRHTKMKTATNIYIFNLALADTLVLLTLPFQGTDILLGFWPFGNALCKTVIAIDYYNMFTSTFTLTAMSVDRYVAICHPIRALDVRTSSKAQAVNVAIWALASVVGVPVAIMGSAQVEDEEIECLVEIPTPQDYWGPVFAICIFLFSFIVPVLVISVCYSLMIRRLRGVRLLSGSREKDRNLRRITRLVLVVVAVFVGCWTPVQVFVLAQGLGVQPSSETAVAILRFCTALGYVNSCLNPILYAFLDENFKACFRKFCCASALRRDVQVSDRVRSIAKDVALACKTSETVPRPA
T8 sequence (Q99705 whole entry): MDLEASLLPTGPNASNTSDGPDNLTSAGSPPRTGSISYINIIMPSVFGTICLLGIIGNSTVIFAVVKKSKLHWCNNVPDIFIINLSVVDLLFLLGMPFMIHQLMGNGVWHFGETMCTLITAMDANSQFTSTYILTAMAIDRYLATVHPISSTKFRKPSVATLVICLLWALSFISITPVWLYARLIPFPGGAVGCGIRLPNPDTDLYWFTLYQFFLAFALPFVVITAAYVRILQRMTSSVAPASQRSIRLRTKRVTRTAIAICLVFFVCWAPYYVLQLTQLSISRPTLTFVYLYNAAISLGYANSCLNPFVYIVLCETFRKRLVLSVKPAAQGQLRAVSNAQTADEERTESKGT
T4 sequence (P32245 whole entry): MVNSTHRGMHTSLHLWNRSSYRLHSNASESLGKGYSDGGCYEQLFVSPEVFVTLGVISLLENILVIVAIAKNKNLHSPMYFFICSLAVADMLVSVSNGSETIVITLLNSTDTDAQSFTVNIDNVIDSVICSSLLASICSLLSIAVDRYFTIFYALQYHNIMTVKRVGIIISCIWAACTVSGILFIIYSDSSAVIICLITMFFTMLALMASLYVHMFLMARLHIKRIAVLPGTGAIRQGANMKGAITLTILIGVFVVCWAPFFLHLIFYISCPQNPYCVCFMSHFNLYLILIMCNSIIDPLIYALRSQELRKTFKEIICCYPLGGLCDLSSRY
T1 sequence (P41145 whole entry): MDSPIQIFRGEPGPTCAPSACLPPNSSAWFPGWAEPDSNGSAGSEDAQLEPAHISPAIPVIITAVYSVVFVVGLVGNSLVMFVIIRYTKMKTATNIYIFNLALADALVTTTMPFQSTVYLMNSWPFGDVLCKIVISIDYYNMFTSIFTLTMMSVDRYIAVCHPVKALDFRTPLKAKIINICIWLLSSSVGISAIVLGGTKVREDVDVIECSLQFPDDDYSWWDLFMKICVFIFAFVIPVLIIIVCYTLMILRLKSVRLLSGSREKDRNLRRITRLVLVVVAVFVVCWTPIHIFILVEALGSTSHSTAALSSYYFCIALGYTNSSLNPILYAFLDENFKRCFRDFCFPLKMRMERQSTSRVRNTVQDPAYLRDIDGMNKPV
T11 sequence (P25103 whole entry): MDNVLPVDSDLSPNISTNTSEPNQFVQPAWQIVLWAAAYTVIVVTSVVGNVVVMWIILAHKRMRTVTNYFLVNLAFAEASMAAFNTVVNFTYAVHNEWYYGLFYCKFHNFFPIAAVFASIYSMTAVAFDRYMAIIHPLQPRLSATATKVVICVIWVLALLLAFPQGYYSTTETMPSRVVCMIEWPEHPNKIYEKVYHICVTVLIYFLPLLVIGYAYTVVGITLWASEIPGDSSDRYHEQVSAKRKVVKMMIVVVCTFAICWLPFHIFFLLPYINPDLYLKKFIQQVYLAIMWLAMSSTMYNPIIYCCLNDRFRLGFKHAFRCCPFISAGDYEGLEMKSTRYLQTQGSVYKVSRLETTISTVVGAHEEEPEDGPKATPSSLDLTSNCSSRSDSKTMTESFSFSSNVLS
T7 sequence (P33032 whole entry): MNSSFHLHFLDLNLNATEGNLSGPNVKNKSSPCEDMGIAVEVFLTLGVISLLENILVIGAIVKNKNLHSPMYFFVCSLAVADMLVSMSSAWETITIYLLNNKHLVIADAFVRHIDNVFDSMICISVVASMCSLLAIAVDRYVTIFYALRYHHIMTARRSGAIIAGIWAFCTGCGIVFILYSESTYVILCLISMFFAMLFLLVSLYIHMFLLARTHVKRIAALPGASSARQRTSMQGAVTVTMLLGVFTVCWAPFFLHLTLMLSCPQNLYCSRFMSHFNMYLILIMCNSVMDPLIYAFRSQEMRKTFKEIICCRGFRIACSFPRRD
T10 sequence (P41968 whole entry): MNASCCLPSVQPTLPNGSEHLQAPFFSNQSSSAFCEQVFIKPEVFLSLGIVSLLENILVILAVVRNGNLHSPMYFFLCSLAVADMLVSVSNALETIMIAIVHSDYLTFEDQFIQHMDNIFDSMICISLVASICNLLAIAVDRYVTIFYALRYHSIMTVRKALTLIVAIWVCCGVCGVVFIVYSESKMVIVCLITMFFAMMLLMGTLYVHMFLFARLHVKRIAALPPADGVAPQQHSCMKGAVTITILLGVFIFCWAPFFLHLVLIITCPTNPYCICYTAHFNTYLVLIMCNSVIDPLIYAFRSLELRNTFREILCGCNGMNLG

| SMILES | A2 radioligand binding, percentage inhibition (Human κ-Opioid (KOP)) | A11 radioligand binding, percentage inhibition (Mouse urotensin (mUR2)) | A1 radioligand binding, percentage inhibition (Human δ-opioid (DOP)) | A4 radioligand binding, percentage inhibition (Human Melanocortin (MC4)) | A9 radioligand binding, percentage inhibition [1] | A7 radioligand binding, percentage inhibition (Human μ-opioid (MOP)) | A5 radioligand binding, percentage inhibition (Human melanocortin (MC5)) | A6 radioligand binding, percentage inhibition [2] | A10 radioligand binding, percentage inhibition (Human opioid (ORL1)) | A3 radioligand binding, percentage inhibition (Human Melanocortin (MC3)) | A8 radioligand binding, percentage inhibition (Human neurokinin (NK1)) |
| --- | --- | --- | --- | --- | --- | --- | --- | --- | --- | --- | --- |
| CO[C@H]1[C@H](O)[C@@H](COCc2cccc(O)c2)OC(OCc2ccc(-c3ccccc3)cc2)[C@@H]1NC(=O)CCCNC(=N)N (stereo partly shown) [compound 149] | − (“−” indicates less than 50% inhibition at 10 μM) | − (“−” indicates less than 50% inhibition at 10 μM) | − (“−” indicates less than 50% inhibition at 10 μM) | − (“−” indicates less than 50% inhibition at 10 μM) | − (“−” indicates less than 50% inhibition at 10 μM) | + (“+” indicates greater than 50% inhibition at 10 μM) | − (“−” indicates less than 50% inhibition at 10 μM) | − (“−” indicates less than 50% inhibition at 10 μM) | − (“−” indicates less than 50% inhibition at 10 μM) | − (“−” indicates less than 50% inhibition at 10 μM) | + (“+” indicates greater than 50% inhibition at 10 μM) |
| CO[C@H]1[C@H](O)[C@@H](COCc2cccc(O)c2)OC(OCc2ccc3ccccc3c2)[C@@H]1NC(=O)CNC(=N)N (stereo partly shown) [compound 150] | + (“+” indicates greater than 50% inhibition at 10 μM) | − (“−” indicates less than 50% inhibition at 10 μM) | − (“−” indicates less than 50% inhibition at 10 μM) | − (“−” indicates less than 50% inhibition at 10 μM) | − (“−” indicates less than 50% inhibition at 10 μM) | + (“+” indicates greater than 50% inhibition at 10 μM) | + (“+” indicates greater than 50% inhibition at 10 μM) | − (“−” indicates less than 50% inhibition at 10 μM) | − (“−” indicates less than 50% inhibition at 10 μM) | − (“−” indicates less than 50% inhibition at 10 μM) | − (“−” indicates less than 50% inhibition at 10 μM) |
| CO[C@H]1[C@H](O)[C@@H](COCc2cccc(O)c2)OC(OCc2ccc3ccccc3c2)[C@@H]1NC(=O)CCNC(=N)N (stereo partly shown) [compound 151] | − (“−” indicates less than 50% inhibition at 10 μM) | − (“−” indicates less than 50% inhibition at 10 μM) | − (“−” indicates less than 50% inhibition at 10 μM) | − (“−” indicates less than 50% inhibition at 10 μM) | − (“−” indicates less than 50% inhibition at 10 μM) | + (“+” indicates greater than 50% inhibition at 10 μM) | − (“−” indicates less than 50% inhibition at 10 μM) | − (“−” indicates less than 50% inhibition at 10 μM) | − (“−” indicates less than 50% inhibition at 10 μM) | − (“−” indicates less than 50% inhibition at 10 μM) | − (“−” indicates less than 50% inhibition at 10 μM) |
| CO[C@H]1[C@H](O)[C@@H](COCc2cccc(O)c2)OC(OCc2ccc3ccccc3c2)[C@@H]1NC(=O)CCCNC(=N)N (stereo partly shown) [compound 152] | − (“−” indicates less than 50% inhibition at 10 μM) | − (“−” indicates less than 50% inhibition at 10 μM) | − (“−” indicates less than 50% inhibition at 10 μM) | − (“−” indicates less than 50% inhibition at 10 μM) | − (“−” indicates less than 50% inhibition at 10 μM) | + (“+” indicates greater than 50% inhibition at 10 μM) | − (“−” indicates less than 50% inhibition at 10 μM) | − (“−” indicates less than 50% inhibition at 10 μM) | − (“−” indicates less than 50% inhibition at 10 μM) | − (“−” indicates less than 50% inhibition at 10 μM) | − (“−” indicates less than 50% inhibition at 10 μM) |
| CO[C@H]1[C@H](O)[C@@H](COCc2cccc(O)c2)OC(OCc2ccccc2)[C@@H]1NC(=O)CCCN (stereo partly shown) [compound 153] | − (“−” indicates less than 50% inhibition at 10 μM) | − (“−” indicates less than 50% inhibition at 10 μM) | − (“−” indicates less than 50% inhibition at 10 μM) | − (“−” indicates less than 50% inhibition at 10 μM) | − (“−” indicates less than 50% inhibition at 10 μM) | − (“−” indicates less than 50% inhibition at 10 μM) | − (“−” indicates less than 50% inhibition at 10 μM) | − (“−” indicates less than 50% inhibition at 10 μM) | − (“−” indicates less than 50% inhibition at 10 μM) | − (“−” indicates less than 50% inhibition at 10 μM) | + (“+” indicates greater than 50% inhibition at 10 μM) |

Source: patent US20080009418A1, “Selective Inhibitors” (Alchemia LTD., priority 2004, published 2008)
